Patent US20090209046A1, “Neutral Pharmaceuticals” (priority 2006, published 2009)
≈ marks a conversion by molar mass, not a printed value. Where two headings read alike, the source gives them in different places. Marks after values point to notes of the source that are not given here.

Assays:
[1] = Measurement of P: partition coefficient in 1-octanol/water system; conditions: 25° C., observed, for aspirin and caffeine the parent drug itself
[2] = Measurement of solubility in water, octanol saturated water and water saturated octanol; conditions: for logSR (Swo/Sow): log solubility ratio; for logSR (Swo/Sow) / Sow / Swo / Sw: 25° C.; for Sow: solubility in octanol saturated water; for Swo: solubility in water saturated octanol; for Sw: solubility in water
Protocol: Solubilities were determined at 25° C. in water (Sw), octanol saturated water (Sow), water saturated octanol (Swo). An excess of the sample was added to 15 ml of each solvent and stirred vigorously at 25° C. for 8 hours. […] The supernatant was collected. The supernatant samples after appropriate dilutions with respective solvent were analyzed by UV spec using a standard plot of solute in the same medium. Solubility of copper acetate in water saturated octanol was determined by extracting 200 ml saturated wo solution into 20 ml ow.

[3] = Stability of mixed-ligand Cu(II) complexes in solution (ESI-MS, 1H DOSY NMR); type: physicochemical; conditions: 1H DOSY NMR in D2O, 298K
Protocol: NMR tubes with a 5-mm internal diameter were used. […] Diffusion coefficients were measured by incrementing the amplitude of the field gradient pulse over 32 steps (0.5-30 G/cm). The bipolar gradient duration and the diffusion time were optimized to 2.4 ms and 14.9 ms, respectively. The intensities were fitted to an exponential decay using the SimFit program within the Topspin software to provide estimates of the diffusion constant.
The formation of Cu(ASP)2(AL)2(H2O) is also observed by us from the ESI-MS of ASP-7 and ASP-8 in aqueous solution. Indeed, for mononuclear Cu(II) species, the coordination of anionic API and neutral AL to copper in solution has been confirmed by the mass spectra.
Since structures of binuclear Cu(II) complexes are analogous, as a model, ASP-3 was investigated by using NMR diffusion measurement for stability studies. Diffusion-Ordered Spectroscopy […]) methods^11 are based on pulsed-field gradient spin-echo NMR experiments. […] The small peak on the left at 8.160 ppm is assigned to one proton of 3-Br-Py by comparing the ^1H NMR spectra of ASP-3 and ASP-3/3-Br-Py mixture. Peaks in the range of 7-8 ppm are due to the peak overstocking of aspirin and 3-Br-Py aromatic protons. […] The diffusion coefficient for ASP-3 was 3.819×10^−9 m^2/s. […]

[4] = water, cited from earlier work

| Compound | logP of complex [1] | logSR (Swo/Sow) [2] | Sow [2] | Swo [2] | Sw [2] | diffusion coefficient [3] | Sw ([4]; from reference Koch et al. J. Pharm. Sci. 1978) | logP (physchem) | solubility thermodynamic at 8 h ([2]; octanol saturated water, 25 °C, water, thermodynamic from solid) [µg/mL] | Sw ([4]; from MSDS) |
| --- | --- | --- | --- | --- | --- | --- | --- | --- | --- | --- |
| CC(=O)Oc1ccccc1C(=O)[O-].CC(=O)Oc1ccccc1C(=O)[O-].CC(=O)Oc1ccccc1C(=O)[O-].CC(=O)Oc1ccccc1C(=O)[O-].[Cu+2].[Cu+2] [ASP-1, Cu2(ASP)4] | −0.2371(267) | −0.4847 | 2.981(3) mg/ml | 0.9767(36) mg/ml | 3.414(25) mg/ml |  |  |  |  |  |
| CC(=O)Oc1ccccc1C(=O)[O-].CC(=O)Oc1ccccc1C(=O)[O-].CC(=O)Oc1ccccc1C(=O)[O-].CC(=O)Oc1ccccc1C(=O)[O-].CN(C)C=O.CN(C)C=O.[Cu+2].[Cu+2] [ASP-2, Cu2(ASP)4(DMF)2] | −0.3484(166) | −0.4873 | 4.493(4) mg/ml | 1.463(26) mg/ml | 3.092(33) mg/ml |  |  |  |  |  |
| Brc1cccnc1.Brc1cccnc1.CC(=O)Oc1ccccc1C(=O)[O-].CC(=O)Oc1ccccc1C(=O)[O-].CC(=O)Oc1ccccc1C(=O)[O-].CC(=O)Oc1ccccc1C(=O)[O-].[Cu+2].[Cu+2] [ASP-3, Cu2(ASP)4(3-Br-Py)2] | 0.1066(58) | −0.09583 | 1.566(5) mg/ml | 1.256(15) mg/ml | 1.564(3) mg/ml | 3.819×10^−9 m^2/s |  |  |  |  |
| CC(=O)Oc1ccccc1C(=O)[O-].CC(=O)Oc1ccccc1C(=O)[O-].CC(=O)Oc1ccccc1C(=O)[O-].CC(=O)Oc1ccccc1C(=O)[O-].[Cu+2].[Cu+2].c1ccc2ncccc2c1.c1ccc2ncccc2c1 [ASP-4, Cu2(ASP)4(Quinoline)2] | 0.4772(140) | 0.2133 | 3.342(3) mg/ml | 5.460(23) mg/ml | 2.729(1) mg/ml |  |  |  |  |  |
| CC(=O)Oc1ccccc1C(=O)[O-].CC(=O)Oc1ccccc1C(=O)[O-].[Cu+2].c1ccncc1.c1ccncc1 [ASP-5, Cu(ASP)2(Pyridine)2] |  | −0.4770 | 3.629(24) mg/ml | 1.210(47) mg/ml | 3.425(21) mg/ml |  |  |  |  |  |
| CC(=O)Oc1ccccc1C(=O)[O-].CC(=O)Oc1ccccc1C(=O)[O-].NC(=O)c1ccncc1.NC(=O)c1ccncc1.[Cu+2] [ASP-7, Cu(ASP)2(Isonicotinamide)2] | −0.4723(272) | −0.5333 | 5.654(20) mg/ml | 1.673(9) mg/ml | 9.259(5) mg/ml |  |  |  |  |  |
| CC(=O)Oc1ccccc1C(=O)[O-].CC(=O)Oc1ccccc1C(=O)[O-].NC(=O)c1cccnc1.NC(=O)c1cccnc1.[Cu+2] [ASP-8, Cu(ASP)2(Nicotinamide)2] | −0.5257(136) | −0.6490 | 3.361(29) mg/ml | 0.7541(97) mg/ml | 4.417(50) mg/ml |  |  |  |  |  |
| CC(=O)Oc1ccccc1C(=O)[O-].CC(=O)Oc1ccccc1C(=O)[O-].[Cu+2].c1ccc(-c2cccnc2)cc1.c1ccc(-c2cccnc2)cc1 [ASP-9, Cu(ASP)2(3-Phenyl-Pyridine)2] |  | 0.4495 | 0.4085(17) mg/ml | 1.150(20) mg/ml | 0.5415(7) mg/ml |  |  |  |  |  |
| CC(=O)Oc1ccccc1C(=O)O [Aspirin(ASP), acetylsalicylic acid, reference compound] |  | 1.101 |  | 54.16(94) mg/ml |  |  | 4.600^b mg/ml | 1.32 | 4300 (≈ 23.8 mM) |  |
| CC(=O)[O-].CC(=O)[O-].COc1cccc(OC)c1C(=O)[O-].COc1cccc(OC)c1C(=O)[O-].O.O.[Cu+2].[Cu+2] [MC-2, Cu2(CH3COO)2(DMB)2(H2O)2] | −1.496(15) | −1.428 | 15.64(14) mg/ml | 0.5841(103) mg/ml | 15.82(11) mg/ml |  |  |  |  |  |
| COc1cccc(OC)c1C(=O)[O-].COc1cccc(OC)c1C(=O)[O-].COc1cccc(OC)c1C(=O)[O-].COc1cccc(OC)c1C(=O)[O-].O.O.[Cu+2].[Cu+2] [MC-3, Cu2(DMB)4(H2O)2] | −1.442(27) | −0.9168 | 31.97(19) mg/ml | 3.872(125) mg/ml | 33.61(21) mg/ml |  |  |  |  |  |
| O.O.O=C(Oc1ccccc1C(=O)[O-])c1ccccc1O.O=C(Oc1ccccc1C(=O)[O-])c1ccccc1O.O=C(Oc1ccccc1C(=O)[O-])c1ccccc1O.O=C(Oc1ccccc1C(=O)[O-])c1ccccc1O.[Cu+2].[Cu+2] [SAS-1, Cu2(SAS)4(H2O)2] | 0.06927(1394) | 1.033 | 0.2962(10) mg/ml | 3.200(5) mg/ml | 0.2791(6) mg/ml |  |  |  |  |  |
| Clc1cccnc1.Clc1cccnc1.O=C(Oc1ccccc1C(=O)[O-])c1ccccc1O.O=C(Oc1ccccc1C(=O)[O-])c1ccccc1O.O=C(Oc1ccccc1C(=O)[O-])c1ccccc1O.O=C(Oc1ccccc1C(=O)[O-])c1ccccc1O.[Cu+2].[Cu+2] [SAS-3, Cu2(SAS)4(3-Cl-Pyridine)2] |  | 0.7472 | 0.1259(4) mg/ml | 0.7034(61) mg/ml | 0.1239(1) mg/ml |  |  |  |  |  |
| O=C(Oc1ccccc1C(=O)[O-])c1ccccc1O.O=C(Oc1ccccc1C(=O)[O-])c1ccccc1O.O=C(Oc1ccccc1C(=O)[O-])c1ccccc1O.O=C(Oc1ccccc1C(=O)[O-])c1ccccc1O.[Cu+2].[Cu+2].c1ccc(Cc2ccncc2)cc1.c1ccc(Cc2ccncc2)cc1 [SAS-4, Cu2(SAS)4(4-Benzyl-Pyridine)2] |  | 1.336 | 0.0153(3) mg/ml | 0.3314(22) mg/ml | 0.0134(3) mg/ml |  |  |  |  |  |
| C1CCOC1.C1CCOC1.O=C(Oc1ccccc1C(=O)[O-])c1ccccc1O.O=C(Oc1ccccc1C(=O)[O-])c1ccccc1O.O=C(Oc1ccccc1C(=O)[O-])c1ccccc1O.O=C(Oc1ccccc1C(=O)[O-])c1ccccc1O.[Cu+2].[Cu+2].c1ccc(-c2ccncc2)cc1.c1ccc(-c2ccncc2)cc1 [SAS-5, Cu2(SAS)4(4-Phenyl-Pyridine)2(THF)2] | 1.231(53) | 1.593 | 0.0315(2) mg/ml | 1.236(18) mg/ml | 0.0303(3) mg/ml |  |  |  |  |  |
| O=C(Oc1ccccc1C(=O)[O-])c1ccccc1O.O=C(Oc1ccccc1C(=O)[O-])c1ccccc1O.[Cu+2].c1ccncc1.c1ccncc1.c1ccncc1 [SAS-6, Cu(SAS)2(Pyridine)3] |  | 0.7655 | 0.3291(8) mg/ml | 1.918(5) mg/ml | 0.4065(8) mg/ml |  |  |  |  |  |
| Cc1ccncc1.Cc1ccncc1.O=C(Oc1ccccc1C(=O)[O-])c1ccccc1O.O=C(Oc1ccccc1C(=O)[O-])c1ccccc1O.[Cu+2] [SAS-8, Cu(SAS)2(4-Me-Pyridine)2] |  | 0.9488 | 0.2174(10) mg/ml | 1.932(23) mg/ml | 0.2301(18) mg/ml |  |  |  |  |  |
| CCc1ccncc1.CCc1ccncc1.O=C(Oc1ccccc1C(=O)[O-])c1ccccc1O.O=C(Oc1ccccc1C(=O)[O-])c1ccccc1O.[Cu+2] [SAS-9, Cu(SAS)2(4-Et-Pyridine)2] |  | 1.115 | 0.1104(8) mg/ml | 1.438(9) mg/ml | 0.1143(2) mg/ml |  |  |  |  |  |
| Cu2(CH3COO)4(H2O)2 [MC-1, reference compound] | −2.222(553) | −2.807 |  | 0.1161(438) mg/ml |  |  |  |  |  | 72^a mg/ml |
| Cu(ASP)2(Isonicotinamide)2(AcCN)2 [ASP-6] | −0.4647(274) | −0.4980 | 5.767(7) mg/ml | 1.832(17) mg/ml | 9.315(10) mg/ml |  |  |  |  |  |
| Cu(SAS)2(Isonicotinamide)2(AcCN)2/3 [SAS-7] | 0.03802(967) | 0.4241 | 0.2890(10) mg/ml | 0.8344(165) mg/ml | 0.3143(9) mg/ml |  |  |  |  |  |
